Structures are written as SMILES.

The target of this assay is T1, human NK3 receptor (Homo sapiens, UniProt P29371).
T1 construct: expressed in transfected cells; host or cells: HEK293 cells (transient expression), membrane preparation
T1 sequence (P29371 1-465): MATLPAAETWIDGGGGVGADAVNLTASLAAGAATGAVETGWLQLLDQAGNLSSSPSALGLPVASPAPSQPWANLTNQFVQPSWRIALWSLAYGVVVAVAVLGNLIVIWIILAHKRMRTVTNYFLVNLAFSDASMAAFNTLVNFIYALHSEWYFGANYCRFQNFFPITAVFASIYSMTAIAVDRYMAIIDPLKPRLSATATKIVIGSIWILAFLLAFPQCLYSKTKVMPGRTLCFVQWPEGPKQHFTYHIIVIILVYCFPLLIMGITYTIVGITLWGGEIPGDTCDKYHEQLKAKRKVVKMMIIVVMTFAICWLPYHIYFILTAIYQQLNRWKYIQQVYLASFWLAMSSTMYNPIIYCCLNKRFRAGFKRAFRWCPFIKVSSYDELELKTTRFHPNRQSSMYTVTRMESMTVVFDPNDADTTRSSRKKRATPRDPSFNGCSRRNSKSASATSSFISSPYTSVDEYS
Description: [3H]SR142801 competition binding assay (hNK3 receptor binding). The note with it: [3H]SR142801 radioligand; membranes from HEK293 cells transiently expressing recombinant human NK3 receptor; Ki by Cheng-Prussoff; read-out: KiNK3 h. Summed up:
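Competition binding with [3H]SR142801 on membranes of HEK293 cells transiently expressing human NK3, 5 μg protein/well, in Tris-HCl/MnCl2/phosphoramidon/BSA buffer pH 7.4. Nonspecific binding defined with 10 μM SB222200; filtration then scintillation counting. IC50 from Hill fit was converted to Ki by Cheng-Prusoff; duplicate, mean ± SEM.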
`Cc1cncc(C(=O)N2C[C@H]([C@H](C)Oc3ccc(C#N)cn3)[C@@H](c3ccc(Cl)c(Cl)c3)C2)c1` (racemic) [Example 73, 6-{(SR)-1-[(3RS,4SR)-4-(3,4-Dichloro-phenyl)-1-(5-methyl-pyridine-3-carbonyl)-pyrrolidin-3-yl]-ethoxy}-nicotinonitrile]: the Ki came to 6.8 nM.

For `C[C@H](Oc1ccc(C#N)cn1)[C@H]1CN(C(=O)c2cncc(F)c2)C[C@@H]1c1ccc(Cl)c(Cl)c1` (racemic) [Example 74, 6-{(SR)-1-[(3RS,4SR)-4-(3,4-Dichloro-phenyl)-1-(5-fluoro-pyridine-3-carbonyl)-pyrrolidin-3-yl]-ethoxy}-nicotinonitrile], the Ki was 18.6 nM.

Consider `C[C@H](Oc1ccc(C#N)cn1)[C@H]1CN(C(=O)c2ccc(F)nc2)C[C@@H]1c1ccc(Cl)c(Cl)c1` (racemic) [Example 75, 6-{(SR)-1-[(3RS,4SR)-4-(3,4-Dichloro-phenyl)-1-(6-fluoro-pyridine-3-carbonyl)-pyrrolidin-3-yl]-ethoxy}-nicotinonitrile], for which the Ki was 33.6 nM.

Consider `C[C@H](Oc1ccc(C#N)cn1)[C@H]1CN(C(=O)c2ccc(OCC(F)(F)F)nc2)C[C@@H]1c1ccc(Cl)c(Cl)c1` (racemic) [Example 76, 6-((SR)-1-{(3RS,4SR)-4-(3,4-Dichloro-phenyl)-1-[6-(2,2,2-trifluoro-ethoxy)-pyridine-3-carbonyl]-pyrrolidin-3-yl}-ethoxy)-nicotinonitrile], for which the Ki is 3.5 nM.

Take `C[C@H](Oc1ccc(C#N)cn1)[C@H]1CN(C(=O)c2ccnnc2)C[C@@H]1c1ccc(Cl)c(Cl)c1` (racemic) [Example 77, 6-{(SR)-1-[(3RS,4SR)-4-(3,4-Dichloro-phenyl)-1-(pyridazine-4-carbonyl)-pyrrolidin-3-yl]-ethoxy}-nicotinonitrile]: the Ki is 32.8 nM.

Turning to `Cc1cc(C(=O)N2C[C@H]([C@H](C)Oc3ccc(C#N)cn3)[C@@H](c3ccc(Cl)c(Cl)c3)C2)c(Cl)nn1` (racemic) [Example 78, 6-{(SR)-1-[(3RS,4SR)-1-(3-Chloro-6-methyl-pyridazine-4-carbonyl)-4-(3,4-dichloro-phenyl)-pyrrolidin-3-yl]-ethoxy}-nicotinonitrile], the Ki worked out at 27.2 nM.

Take `Cc1ncc(C(=O)N2C[C@H]([C@H](C)Oc3ccc(C(F)(F)F)cn3)[C@@H](c3ccc(Cl)c(Cl)c3)C2)cn1` (racemic) [Example 79, {(3SR,4RS)-3-(3,4-Dichloro-phenyl)-4-[(SR)-1-(5-trifluoromethyl-pyridin-2-yloxy)-ethyl]-pyrrolidin-1-yl}-(2-methyl-pyrimidin-5-yl)-methanone]: the Ki was 27.2 nM.

With `C[C@H](Oc1ccc(C(F)(F)F)cn1)[C@H]1CN(C(=O)c2ccc(-n3cccn3)nc2)C[C@@H]1c1ccc(Cl)c(Cl)c1` (racemic) [Example 80, {(3SR,4RS)-3-(3,4-Dichloro-phenyl)-4-[(SR)-1-(5-trifluoromethyl-pyridin-2-yloxy)-ethyl]-pyrrolidin-1-yl}-(6-pyrazol-1-yl-pyridin-3-yl)-methanone], the Ki is 1.5 nM.

Turning to `C[C@H](Oc1ccc(C(F)(F)F)cn1)[C@H]1CN(C(=O)c2ccc(Cl)nc2)C[C@@H]1c1ccc(Cl)c(Cl)c1` (racemic) [Example 81, (6-Chloro-pyridin-3-yl)-{(3SR,4RS)-3-(3,4-dichloro-phenyl)-4-[(SR)-1-(5-trifluoromethyl-pyridin-2-yloxy)-ethyl]-pyrrolidin-1-yl}-methanone], the Ki came out at 4.8 nM.

As for `C[C@H](Oc1ccc(C(F)(F)F)cn1)[C@H]1CN(C(=O)c2ccnc(Cl)c2)C[C@@H]1c1ccc(Cl)c(Cl)c1` (racemic) [Example 82, (2-Chloro-pyridin-4-yl)-{(3SR,4RS)-3-(3,4-dichloro-phenyl)-4-[(SR)-1-(5-trifluoromethyl-pyridin-2-yloxy)-ethyl]-pyrrolidin-1-yl}-methanone], the Ki was 3.2 nM.

`Cc1noc(-c2ccc(C(=O)N3C[C@H]([C@H](C)Oc4ccc(C(F)(F)F)cn4)[C@@H](c4ccc(Cl)c(Cl)c4)C3)cc2)n1` (racemic) [Example 83, {(3SR,4RS)-3-(3,4-Dichloro-phenyl)-4-[(SR)-1-(5-trifluoromethyl-pyridin-2-yloxy)-ethyl]-pyrrolidin-1-yl}-[4-(3-methyl-[1,2,4]oxadiazol-5-yl)-phenyl]-methanone]: the Ki was found to be 0.6 nM.

Consider `C[C@H](Oc1ccc(C(F)(F)F)cn1)[C@H]1CN(C(=O)c2cnc(C3CC3)nc2)C[C@@H]1c1ccc(Cl)c(Cl)c1` (racemic) [Example 85, (2-Cyclopropyl-pyrimidin-5-yl)-{(3SR,4RS)-3-(3,4-dichloro-phenyl)-4-[(SR)-1-(5-trifluoromethyl-pyridin-2-yloxy)-ethyl]-pyrrolidin-1-yl}-methanone], for which the Ki came to 7.5 nM.

As to `CCc1ncc(C(=O)N2C[C@H]([C@H](C)Oc3ccc(C#N)cn3)[C@@H](c3ccc(Cl)c(Cl)c3)C2)cc1C` (racemic) [Example 86, 6-{(SR)-1-[(3RS,4SR)-4-(3,4-Dichloro-phenyl)-1-(6-ethyl-5-methyl-pyridine-3-carbonyl)-pyrrolidin-3-yl]-ethoxy}-nicotinonitrile], the Ki was 4.3 nM.

For the compound `Cc1ncc(C(=O)N2C[C@H]([C@H](CO)Oc3ccc(Cl)cn3)[C@@H](c3ccc(Cl)c(Cl)c3)C2)cn1` (racemic) [Example 87, [(3RS,4SR)-3-[(RS)-1-(5-Chloro-pyridin-2-yloxy)-2-hydroxy-ethyl]-4-(3,4-dichloro-phenyl)-pyrrolidin-1-yl]-(2-methyl-pyrimidin-5-yl)-methanone], the Ki was found to be 56.2 nM.

`Cc1cc(C(=O)N2C[C@H]([C@H](C)Oc3ccc(C#N)cn3)[C@@H](c3ccc(Cl)c(Cl)c3)C2)cnn1` (racemic) [Example 89, 6-{(SR)-1-[(3RS,4SR)-4-(3,4-Dichloro-phenyl)-1-(6-methyl-pyridazine-4-carbonyl)-pyrrolidin-3-yl]-ethoxy}-nicotinonitrile]: the Ki amounted to 9.1 nM.

Regarding `Cc1ccnc(C(=O)N2C[C@H]([C@H](C)Oc3ccc(C#N)cn3)[C@@H](c3ccc(Cl)c(Cl)c3)C2)c1` (racemic) [Example 92, 6-{(SR)-1-[(3RS,4SR)-4-(3,4-Dichloro-phenyl)-1-(4-methyl-pyridine-2-carbonyl)-pyrrolidin-3-yl]-ethoxy}-nicotinonitrile], the Ki turned out to be 33.8 nM.

For `Cc1cccc(C(=O)N2C[C@H]([C@H](C)Oc3ccc(C#N)cn3)[C@@H](c3ccc(Cl)c(Cl)c3)C2)n1` (racemic) [Example 93, 6-{(SR)-1-[(3RS,4SR)-4-(3,4-Dichloro-phenyl)-1-(6-methyl-pyridine-2-carbonyl)-pyrrolidin-3-yl]-ethoxy}-nicotinonitrile], the Ki was found to be 64.6 nM.

For the compound `Cc1nccc(C(=O)N2C[C@H]([C@H](C)Oc3ccc(C#N)cn3)[C@@H](c3ccc(Cl)c(Cl)c3)C2)n1` (racemic) [Example 95, 6-{(SR)l-1[-(3RS,4SR)-4-(3,4-Dichloro-phenyl)-1-(2-methyl-pyrimidine-4-carbonyl)-pyrrolidin-3-yl]-ethoxy}-nicotinonitrile], the Ki came to 52.4 nM.

With `Cc1cnc(C(=O)N2C[C@H]([C@H](C)Oc3ccc(C#N)cn3)[C@@H](c3ccc(Cl)c(Cl)c3)C2)cn1` (racemic) [Example 97, 6-{(SR)-1-[(3RS,4SR)-4-(3,4-Dichloro-phenyl)-1-(5-methyl-pyrazine-2-carbonyl)-pyrrolidin-3-yl]-ethoxy}-nicotinonitrile], the Ki was found to be 67.5 nM.

Take `C[C@H](Oc1ccc(C#N)cn1)[C@H]1CN(C(=O)c2cnc(C(C)(C)C)nc2)C[C@@H]1c1ccc(Cl)c(Cl)c1` (racemic) [Example 98, 6-{(SR)-1-[(3RS,4SR)-1-(2-tert-Butyl-pyrimidine-5-carbonyl)-4-(3,4-dichloro-phenyl)-pyrrolidin-3-yl]-ethoxy}-nicotinonitrile]: the Ki is 45.7 nM.

For the compound `C#Cc1ccc(O[C@@H](C)[C@H]2CN(C(=O)c3cnnc(C)c3)C[C@@H]2c2ccc(Cl)c(Cl)c2)nc1` (racemic) [Example 110, {(3SR,4RS)-3-(3,4-Dichloro-phenyl)-4-[(SR)-1-(5-ethynyl-pyridin-2-yloxy)-ethyl]-pyrrolidin-1-yl}-(6-methyl-pyridazin-4-yl)-methanone], the Ki worked out at 17.7 nM.

In the case of `Cc1cc(C(=O)N2C[C@H]([C@H](C)Oc3ccc(Cl)cn3)[C@@H](c3ccc(F)cc3F)C2)cnn1` (racemic) [Example 117, [(3RS,4SR)-3-[(SR)-1-(5-Chloro-pyridin-2-yloxy)-ethyl]-4-(2,4-difluoro-phenyl)-pyrrolidin-1-yl]-(6-methyl-pyridazin-4-yl)-methanone], the Ki turned out to be 27 nM.

With `Cc1ncc(C(=O)N2CC(c3ccc(Cl)c(Cl)c3)[C@@H]([C@H](C)Oc3ccc(Cl)cn3)C2)cn1` (single isomer, unassigned) [Example 40], the Ki is 6.8 nM.

For the compound `C[C@H](Oc1ccc(Cl)cn1)[C@H]1CN(C(=O)c2ccc(C#N)nc2)C[C@@H]1c1ccc(Cl)c(Cl)c1` (single isomer, unassigned) [Example 54], the Ki amounted to 2 nM.

The values above are taken from US8012998B2, “Pyrrolidine aryl-ether as NK-3 receptor antagonists” (Hoffmann—LA Roche Inc., priority 2007, dated 2011).
